{"source": "patent EP4585216A1", "about": "“HETEROCYCLIC COMPOUNDS FOR THE TREATMENT OF FATTY LIVER DISEASE” (ScandiEdge Therapeutics AB, priority 2024, dated 2025)", "key": {"[1]": {"target": "T1, pyruvate kinase liver (PKL) (Homo sapiens, UniProt P30613)", "T1 construct": "endogenous in cells; host or cells: HepG2 PKM2 CRISPR KO (HepG2 KO) cells; lysate in CelLytic M or treated whole cells", "T1 sequence (P30613 1-543 isoform P30613-2)": "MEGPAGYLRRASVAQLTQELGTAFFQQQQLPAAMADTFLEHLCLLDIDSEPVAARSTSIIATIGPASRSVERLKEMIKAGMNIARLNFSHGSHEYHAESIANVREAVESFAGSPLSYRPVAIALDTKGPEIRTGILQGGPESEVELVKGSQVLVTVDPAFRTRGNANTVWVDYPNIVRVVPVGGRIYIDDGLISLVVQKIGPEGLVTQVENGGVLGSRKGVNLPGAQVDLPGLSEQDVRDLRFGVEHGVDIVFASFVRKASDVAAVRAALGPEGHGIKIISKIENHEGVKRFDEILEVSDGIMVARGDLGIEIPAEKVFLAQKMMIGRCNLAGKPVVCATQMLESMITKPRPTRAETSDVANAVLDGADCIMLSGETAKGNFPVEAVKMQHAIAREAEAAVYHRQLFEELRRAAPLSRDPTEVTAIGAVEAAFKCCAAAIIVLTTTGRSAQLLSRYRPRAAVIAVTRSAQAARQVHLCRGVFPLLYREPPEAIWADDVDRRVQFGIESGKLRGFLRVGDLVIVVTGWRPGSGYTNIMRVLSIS", "test": "Pyruvate kinase activity in treated HepG2 PKM2 CRISPR KO cells", "format": "cell-based", "details": "20 µM for 4 h", "description": "(§1) HepG2 WT and HepG2 KO cells were lysed, and protein lysate was prepared with CelLytic M (C2978, Sigma-Aldrich) lysis buffer. Protein lysate was treated with 10 µM of the drugs and the pyruvate kinase activity on protein lysate was measured using Pyruvate Kinase Assay Kit (ab83432, abeam) following manufacturer's instruction. 2×10^4 HepG2 WT cells and 1×10^5 HepG2 KO cells were seeded into a 96-well plate for measuring pyruvate kinase activity in the cells. The cells were treated with 10-20µM of drugs for 4h and washed with 250µl PBS. Cells were lysed with 50 µl PK assay buffer (ab83432, abcam) and start reaction and kinetic O.D measurement was performed on 50µl PK assay buffer containing the assay component (ab83432, abcam). O.D values were measured with microplate reader (Hidex Sense Beta Plus) at 570nm wavelength. DMSO was used as control.\n(§2) The effect of the target compounds was studied on liver cell line HepG2. HepG2 expresses two different pyruvate kinases (PK), pyruvate kinase muscle (PKM2) and pyruvate kinase liver (PKL). While most cells express PKM, liver cells further express PKL. […] In addition to HepG2 KO cell, HepG2 wild-type (HepG2 WT) cells were also used."}, "[2]": {"test_system": "PKL", "test": "Western blot of DNL steatosis model, PKL expression", "format": "cell-based", "details": "5 µM", "description": "(§3) HepG2 wild type cells were purchased from genome engineering company Synthego. Cells were maintained with growth media RPMI 1640 (R2405, Sigma-Aldrich) and supplemented with 10 % fetal bovine serum (FBS, F7524, Sigma-Aldrich), 1 % penicillin-streptomycin (P/S media, P4333, Sigma-Aldrich). Steatosis induction media was prepared as DMEM high glucose (D0819, Sigma-Aldrich) with 10% FBS, 1% P/S media supplemented with 10µg/ml insulin (I9278, Sigma-Aldrich), and 10µM T0901317 (T2320, Sigma-Aldrich) for one week. HepG2 cells were seeded 6×10^4 cells per well into a 96-well plate for TAG and MTT assay after steatosis and 1×10^6 cells per well into 6-well plate for western blot analysis after steatosis. HepG2 cells were incubated with steatosis induce media (SM) for one week by 3 day + 2 day + 2 day with total three times media exchange.\n(§4) After steatosis induction with designated concentration of compounds, whole cell lysate was prepared with CelLytic M (C2978, Sigma-Aldrich) buffer. SDS PAGE was performed on Mini-PROTEAN® TGX™ Precast Gels (Bio-Rad) and transferred using Trans-Blot® Turbo™ Transfer System (Bio-Rad). […] Protein band was detected with ImageQuantTMLAS 500 (29-0050-63, GE). […]"}, "[3]": {"target": "T2, PKM2 (Homo sapiens, UniProt P14618)", "T2 construct": "host or cells: HepG2 wild-type cells", "T2 sequence (P14618 2-531 limits assumed)": "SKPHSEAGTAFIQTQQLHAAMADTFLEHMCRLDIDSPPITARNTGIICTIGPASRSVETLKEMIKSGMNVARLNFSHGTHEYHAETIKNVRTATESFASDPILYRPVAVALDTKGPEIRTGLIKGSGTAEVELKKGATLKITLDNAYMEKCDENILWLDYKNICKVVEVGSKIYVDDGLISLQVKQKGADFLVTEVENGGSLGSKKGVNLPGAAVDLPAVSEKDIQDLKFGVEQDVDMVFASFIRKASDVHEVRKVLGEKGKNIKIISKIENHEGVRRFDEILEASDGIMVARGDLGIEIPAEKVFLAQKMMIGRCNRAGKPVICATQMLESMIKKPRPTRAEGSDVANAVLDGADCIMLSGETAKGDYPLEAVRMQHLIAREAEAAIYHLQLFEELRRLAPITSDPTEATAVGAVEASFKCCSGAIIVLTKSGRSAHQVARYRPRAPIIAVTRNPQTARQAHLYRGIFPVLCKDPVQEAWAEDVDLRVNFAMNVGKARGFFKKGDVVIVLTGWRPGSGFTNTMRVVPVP", "test": "Cellular thermal shift assay (Cetsa), PKM2", "format": "cell-based", "details": "HepG2 WT cells, 10 and 20 µM for 2 h, heat shock 60°C 5 min", "description": "(§5) HepG2 WT cells were trypsinized and transferred into 1.5ml tube at a concentration of 500,000 cells per ml. The cells were treated with 10µM and 20µM SET-62 in an 1.5 ml tube and incubated for 2 h at 37°C in an CO2 incubator. The tubes were exposed to heat shock at 60°C for 5 min with a pre-heated heat block. After centrifugation of the heated cells at 13,000 rpm for 1 min, the cells were lysed with 50 µl of Native lysis Buffer (ab156035, abeam). Centrifugation was performed again to purify soluble proteins in the lysed solution and 9 µl of each group were analysed using western blot. DMSO was used as control."}, "[4]": {"test_system": "HepG2 cells", "test": "MTT assay (cell viability) in DNL steatosis model", "format": "cell-based", "description": "as §3\n(§6) HepG2 cells were seeded at 6×10^4 cells per well into 96-well plate and induced steatosis for one week with designated concentration of small molecules (this will be referred to as a DNL steatosis model). After steatosis induction, cells were washed with 200 µl of PBS and triglyceride contents was measured by Triglyceride Assay Kit - Quantification (ab65336, Abeam) following manufacturer's instruction. Optical density (O.D) values were detected with microplate reader at 570 nm (Hidex Sense Beta Plus).\n(§7) 5 mg/ml MTT (M2128, Sigma-Aldrich) solution in PBS (10 µL) was added to each well for MTT assay. After 1 hr, MTT solution and all media were removed from the wells. 100 µl of DMSO was added and mixed to dissolve the formazan crystals. Cell viability was analysed by measuring the absorbance of the dissolved formazan in a microplate reader at a wavelength of 570 nm with microplate reader (Hidex Sense Beta Plus). DMSO was used as control."}, "[5]": {"target": "T3, PKL (Homo sapiens, UniProt P30613)", "T3 construct": "host or cells: HepG2 wild-type cells", "T3 sequence (P30613 1-543 isoform P30613-2)": "as the sequence (P30613 1-543 isoform P30613-2) above", "test": "Cellular thermal shift assay (Cetsa), PKL", "format": "cell-based", "details": "HepG2 WT cells, 10 and 20 µM for 2 h, heat shock 60°C 5 min", "description": "as §5"}, "[6]": {"test_system": "fatty acid synthase (FASN)", "test": "Western blot of DNL steatosis model, FASN expression", "format": "cell-based", "details": "5 µM", "description": "as §3, §4"}, "[7]": {"target": "T1, pyruvate kinase liver (PKL)", "test": "Pyruvate kinase activity in HepG2 PKM2 CRISPR KO protein lysate", "format": "biochemical", "description": "as §1, §2"}, "[8]": {"test_system": "PKM2", "test": "Western blot of DNL steatosis model, PKM2 expression", "format": "cell-based", "details": "5 µM", "description": "as §3, §4"}, "[9]": {"test_system": "pyruvate kinase (PK)", "test": "Pyruvate kinase activity in HepG2 WT protein lysate", "format": "biochemical", "details": "10 µM", "description": "as §1, §2"}, "[10]": {"test_system": "HepG2 cells", "test": "TAG measurement in DNL steatosis model", "format": "cell-based", "description": "as §3, §6, §7"}, "[11]": {"test_system": "pyruvate kinase (PK)", "test": "Pyruvate kinase activity in treated HepG2 WT cells", "format": "cell-based", "details": "20 µM for 4 h", "description": "as §1, §2"}}, "note": "Values joined by “and” are separate entries in the source; they are usually repeats but may differ in a detail not shown here. Identical values can stand only once. “Also recorded” adds a separate entry of the source.", "data": [{"smiles": "O=S1(=O)c2cc(O)c(O)cc2-c2ccc(C(F)(F)F)cc2N1Cc1ccccc1", "note": "[SET-62, 6-benzyl-2,'3-dihydroxy-8-(trifluoromethyl)-6H-dibenzo[c,e][1,2]thiazine 5,5-dioxide]", "values": [{"measurement": "decrease in PK activity of HepG2 KO cells", "setting": "[1]", "result": "32.8% and 24.4%"}, {"measurement": "effect on PK activity in HepG2 KO cells (in words)", "setting": "[1]", "result": "decreased the PK activity"}, {"measurement": "PKL protein expression level", "setting": "[2]", "result": "decreased"}, {"measurement": "increase of the solubility of PKM2", "setting": "[3]", "result": "12-18%"}, {"measurement": "cell viability (in words)", "setting": "[4]; 5 µM for 1 week (batch 4)", "result": "increased the cell viability"}, {"measurement": "cell viability (MTT assay, in words)", "setting": "[4]; 10 µM for 1 week", "result": "decreased cell viability; also recorded: strong toxicity"}, {"measurement": "cell viability / toxicity (in words)", "setting": "[4]; lower doses (5 µM, 2.5 µM, 1.25 µM, 0.625 µM), one week", "result": "did not exhibit any toxicity"}, {"measurement": "decrease of the solubility of PKL", "setting": "[5]", "result": "~ 38%"}, {"measurement": "FASN protein expression level", "setting": "[6]", "result": "decreased"}, {"measurement": "PK activity of HepG2 KO protein lysate (in words)", "setting": "[7]; 10 µM, batches 4 and 5", "result": "highest inhibitory effect"}, {"measurement": "inhibition at 10 µM", "setting": "[7]; compared to the control (DMSO), read-out: reduction in PK activity of HepG2 KO protein lysate", "result": 57, "unit": "%"}, {"measurement": "expression of PKM2", "setting": "[8]", "result": "slight increase"}, {"measurement": "PK activity of HepG2 WT protein lysate (in words)", "setting": "[9]; batches 4 and 5", "result": "highest inhibitory effect"}, {"measurement": "reduction in PK activity of HepG2 WT protein lysate", "setting": "[9]; compared to the control (DMSO)", "result": 59.9, "unit": "%"}, {"measurement": "TAG/MTT reduced to", "setting": "[10]; 0.625 µM for one week", "result": 15.0, "unit": "%"}, {"measurement": "TAG/MTT ratio reduced to", "setting": "[10]; 5 µM for one week", "result": "49.4% and 61.3%"}, {"measurement": "TAG content (in words)", "setting": "[10]; 10 µM for 1 week", "result": "reduced TAG content"}, {"measurement": "TAG/MTT ratio", "setting": "[10]; 10 µM for 1 week", "result": 92.9, "unit": "%"}, {"measurement": "effect on PK activity in HepG2 WT cells (in words)", "setting": "[11]", "result": "slightly increased the PK activity"}, {"measurement": "increase in PK activity of HepG2 WT cells", "setting": "[11]", "result": "6% and 9.0%"}]}]}
